In US20250109157A1, “COMPOUNDS AND METHODS FOR TREATMENT OF VIRAL INFECTIONS” (Gilead Sciences, Inc., priority 2023, published 2025):

Columns and labels:
RSV strain A2 = experiment: RSV EC50 HEp-2 cytopathic cell protection assay; assay type: cell-based; conditions: human respiratory syncytial virus, 96 h; HEp-2 cells, RSV strain A2, 4 days, Cell TiterGlo; read-out: RSV EC50 HEp2
MERS-CoV = experiment: microbe, parasite or virus in culture; assay type: cell-based; conditions: Middle East respiratory syndrome-related coronavirus, Vero 76, 72 h, read-out: MERS CoV EC50
HEp-2 CC50 cytotoxicity = assay type: cell-based; conditions: human; HEp-2 cells, 4-5 days, CellTiter Glo; read-out: HEp2 CC50
Protocol: (§1) HEp-2 (1.5×10^3 cells/well) or MT4 (2×10^3 cells/well) cells were plated in 384-well plates and incubated with the appropriate medium containing 3-fold serially diluted compound ranging from 15 nM to 100,000 nM. Cells were cultured for 4-5 days at 37° C. Following the incubation, the cells were allowed to equilibrate to 25° C., and cell viability was determined by adding CellTiter Glo viability reagent. The mixture was incubated for 10 min, and the luminescence signal was quantified using an Envision plate reader. Cell lines were not authenticated and were not tested for mycoplasma as part of routine use in cytotoxicity assays.

MT4 CC50 cytotoxicity = assay type: cell-based; conditions: human; MT4 cells, 4-5 days, CellTiter Glo
Protocol: as §1

RSV RNP complexes = RSV RNP complexes (Human respiratory syncytial virus A, UniProt P28887); experiment: RSV RNP Polymerase IC50 transcription assay; assay type: biochemical; conditions: crude RSV RNP complexes, 90 min at 30° C.
Protocol: Transcription reactions contained 25 μg of crude RSV RNP complexes in 30 μL of reaction buffer (50 mM TRIS-acetate [pH 8.0], 120 mM potassium acetate, 5% glycerol, 4.5 mM MgCl2, 3 mM DTT, 2 mM EGTA, 50 μg/mL BSA, 2.5 U RNasin, 20 μM ATP, 100 μM GTP, 100 μM UTP, 100 μM CTP, and 1.5 μCi [α-^32P] ATP [3,000 Ci/mmol]). The radiolabeled nucleotide used in the transcription assay was selected to match the nucleotide analog being evaluated for inhibition of RSV RNP transcription. To determine whether nucleotide analogs inhibited RSV RNP transcription, compounds were added using a 6-step serial dilution in 5-fold increments. After a 90 min incubation at 30° C., the RNP, reactions were stopped with 350 μL of Qiagen RLT lysis buffer, and the RNA was purified using a Qiagen RNeasy 96 kit. Purified RNA was denatured in RNA sample loading buffer at 65° C. for 10 min and run on a 1.2% agarose/MOPS gel containing 2M formaldehyde. The agarose gel was dried, exposed to a Storm phosphorimaging screen, and developed using a Storm phosphorimager.

DENV2 NS5 = DENV2 NS5 (Dengue virus type 2, UniProt P14340); experiment: DENGUE sshRNA Polymerase IC50; assay type: biochemical; conditions: 100 nM DENV2 NS5, sshRNA template, 90 minutes at 30° C.
Protocol: A 244 nucleotide secondary structureless heteropolymeric RNA (sshRNA) with sequence 5′-(UCAG)20(UCCAAG)14(UCAG)20-3′ (SEQ ID NO: 1) is used as the template with 5′-CUG-3′ primer in the DENV2-NS5 polymerase assay. Six two-fold dilutions of compounds starting from 200 nM and no inhibitor control are plated in 96-well plates. […] Enzyme mix is added to compound dilutions and reactions initiated by the addition of a mixture containing 20 μM of three natural NTP plus 2 μM of analog:base matched competing natural NTP containing 1:100 α-^33P-NTP. After 90 minutes at 30° C., 5 μL of the reaction mixtures are spotted on DE81 anion exchange paper. Filter papers are washed three times with Na2HPO4 (125 mM, pH 9) for 5 minutes, rinsed with water and ethanol, then air-dried and exposed to phosphorimager. Synthesized RNA is quantified using Typhoon Trio Imager and Image Quant TL Software and reaction rates are calculated by linear regression using GraphPad Prism 5.0. IC50 values are calculated in Prism by non-linear regression analysis using the dose-response (variable slope) equation (four-parameter logistic equation): Y=Bottom+(Top−Bottom)/(1+10^((LogIC50−X)*HillSlope)).

POLRMT = POLRMT (Homo sapiens, UniProt O00411); experiment: MTRNAP SNI single nucleotide incorporation; assay type: biochemical; conditions: 376 nM POLRMT, 500 μM NTP analog
Protocol: A mixture of MTCN buffer (50 mM MES, 25 mM Tris-HCl, 25 mM CAPS, and 50 mM NaCl, pH 7.5), 200 nM 5′-32P-R12/D18, 10 mM MgCl2, 1 mM DTT, and 376 nM POLRMT was preincubated at 30° C. for 1 min. The reaction was started by addition of 500 μM (final) natural NTP or NTP analogs. At selected time points, the reaction mixture was removed and quenched with gel loading buffer containing 100 mM EDTA, 80% formamide, and bromophenol blue, and heated at 65° C. for 5 min. The samples were run on a 20% polyacrylamide gel (8 M urea), and the product formation was quantified using Typhoon Trio Imager and Image Quant TL Software (GE Healthcare, Piscataway, NJ). The rate of single nucleotide incorporation by mt RNA pol was calculated by fitting the product formation using the single exponential equation: [R13]=A(1−e−kt), where [R13] represents the amount (in nM) of the elongated product formed, t represents the reaction time, k represents the observed rate, and A represents the amplitude of the exponential.

[1] = test system: Dengue serotype 2 New Guinea C (NGC) strain; experiment: DENV EC50 Huh7 qPCR assay; assay type: cell-based; conditions: Dengue virus, Huh-7, Huh7 cells, DENV2 NGC, MOI 0.1, 48 hours
Protocol: Huh7 (Human hepatocarcinoma 7) cells were maintained in 10% FCS-containing DMEM complete media. On the day of the assay, cells were trypsinized (0.1% Trypsin-EDTA), washed and infected for 2 hours in serum-free DMEM with Dengue serotype 2 New Guinea C (NGC) strain at MOI=0.1 with gentle agitation at 37° C. After 2 hours, cells were washed with serum-free media and suspended in 10% FCS-containing DMEM (Gibco, supplemented with sodium pyruvate, NEAA, Penicillin-Streptomycin). 10^5 cells were plated in triplicate in 96-well plates with compounds dispensed at graded doses (Hewlett-Packard D300 Digital Dispenser). All wells were normalized to 0.25% DMSO. At 48 hours, cells were washed with 1×PBS and all supernatants removed. Total RNA was extracted using RNEasy 96 plates (Qiagen) and used to generate first-strand cDNA using XLT cDNA 5× Supermix (QuantaBio). cDNA was used as a template in a Taqman qPCR duplex reaction specific to DENV2 viral and GAPDH gene expression. EC50 values were determined using Prism Graphpad software, with normalization to a positive control and no compound negative control wells.

SARS-CoV2-Nluc viruses = experiment: microbe, parasite or virus in culture; assay type: cell-based, SARS-CoV-2; conditions: Severe acute respiratory syndrome coronavirus 2, A549, 48 h
Huh7 CC50 cytotoxicity = assay type: cell-based; conditions: human, Huh7 cells, CellTiter-Glo
Protocol: Human hepatocarcinoma 7 (Huh7) cells were maintained in 10% FCS-containing complete DMEM. On day of assay, cells were trypsinized with 0.1% Trypsin-EDTA, washed and cultured in triplicate at 1-2×10^4 cells/well in 96-well plates with compounds dispensed at graded doses (Hewlett-Packard D300 Digital Dispenser). All wells were normalized to 0.25% DMSO. After 48 h, CellTiter-Gio (Promega) was added and incubated for 10 minutes at room temp before reading on a luminometer. % viability curves were calculated against no compound and no cell control wells. CC50 values (compound concentration for reducing 50% of luminescence signal as a measure of cell viability) were determined using Prism Graphpad software.

[2] = A549-hACE2 CC50 cytotoxicity; assay type: cell-based; conditions: human, A549-hACE2 cells, CellTiter-Glo
Protocol: The cytotoxicity of compounds was determined in A549-hACE2 cells in the following manner. Compounds (200 nL) were spotted onto 384-well Grenier plates prior to seeding 5000 A549-hACE2 cells/well in a volume of 40 μL culture medium. The plates were incubated at 37° C. for 48 hours with 5% CO2. On day 2, 40 μL of CellTiter-Glo (Promega) was added and mixed 5 times. Plates were read for luminescence on an Envision (PerkinElmer) and the CC50 values were calculated using a nonlinear regression model (four parameters).

Zika virus strain MR766 = experiment: Zika EC50 Huh7 XTT assay; conditions: Huh-7, read-out: Zika EC50 Huh7

Sequence of POLRMT (O00411 42-1230): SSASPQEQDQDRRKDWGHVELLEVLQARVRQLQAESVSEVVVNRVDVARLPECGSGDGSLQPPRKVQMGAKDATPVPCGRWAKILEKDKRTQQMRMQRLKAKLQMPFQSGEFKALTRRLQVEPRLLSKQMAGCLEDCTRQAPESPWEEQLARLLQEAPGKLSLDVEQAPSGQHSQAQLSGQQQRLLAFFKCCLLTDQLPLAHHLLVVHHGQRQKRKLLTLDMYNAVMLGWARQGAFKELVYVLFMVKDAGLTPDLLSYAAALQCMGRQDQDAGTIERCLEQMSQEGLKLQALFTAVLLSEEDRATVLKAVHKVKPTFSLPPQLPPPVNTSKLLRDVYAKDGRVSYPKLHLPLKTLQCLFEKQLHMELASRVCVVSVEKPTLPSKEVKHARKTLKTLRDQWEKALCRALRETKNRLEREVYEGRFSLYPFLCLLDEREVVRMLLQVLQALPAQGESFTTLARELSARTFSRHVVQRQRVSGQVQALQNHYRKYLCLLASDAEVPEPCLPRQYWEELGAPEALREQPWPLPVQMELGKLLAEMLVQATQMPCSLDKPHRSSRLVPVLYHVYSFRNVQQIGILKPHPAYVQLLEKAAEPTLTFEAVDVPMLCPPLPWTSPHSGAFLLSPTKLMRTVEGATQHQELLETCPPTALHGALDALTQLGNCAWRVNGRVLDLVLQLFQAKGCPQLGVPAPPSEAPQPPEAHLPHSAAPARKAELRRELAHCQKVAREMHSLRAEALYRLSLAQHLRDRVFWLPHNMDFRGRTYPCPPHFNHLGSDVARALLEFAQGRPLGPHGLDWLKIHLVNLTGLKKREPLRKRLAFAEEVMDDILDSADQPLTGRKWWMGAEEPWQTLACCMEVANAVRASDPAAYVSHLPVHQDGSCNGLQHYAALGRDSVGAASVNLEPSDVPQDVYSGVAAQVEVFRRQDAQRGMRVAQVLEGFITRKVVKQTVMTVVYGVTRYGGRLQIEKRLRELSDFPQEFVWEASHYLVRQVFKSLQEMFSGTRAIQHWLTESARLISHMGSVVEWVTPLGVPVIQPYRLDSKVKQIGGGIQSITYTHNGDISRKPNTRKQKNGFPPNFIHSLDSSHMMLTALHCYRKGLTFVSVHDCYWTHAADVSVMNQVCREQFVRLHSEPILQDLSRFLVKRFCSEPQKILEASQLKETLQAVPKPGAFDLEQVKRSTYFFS
Sequence of RSV RNP complexes (P03421 whole entry): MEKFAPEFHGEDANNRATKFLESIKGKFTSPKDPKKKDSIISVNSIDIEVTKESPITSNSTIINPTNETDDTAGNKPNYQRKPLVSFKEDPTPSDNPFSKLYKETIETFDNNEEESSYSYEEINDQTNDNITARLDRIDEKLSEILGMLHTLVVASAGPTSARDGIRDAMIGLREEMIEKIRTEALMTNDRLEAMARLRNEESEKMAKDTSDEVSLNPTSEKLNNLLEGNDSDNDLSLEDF
Sequence of RSV RNP complexes (P28887 whole entry): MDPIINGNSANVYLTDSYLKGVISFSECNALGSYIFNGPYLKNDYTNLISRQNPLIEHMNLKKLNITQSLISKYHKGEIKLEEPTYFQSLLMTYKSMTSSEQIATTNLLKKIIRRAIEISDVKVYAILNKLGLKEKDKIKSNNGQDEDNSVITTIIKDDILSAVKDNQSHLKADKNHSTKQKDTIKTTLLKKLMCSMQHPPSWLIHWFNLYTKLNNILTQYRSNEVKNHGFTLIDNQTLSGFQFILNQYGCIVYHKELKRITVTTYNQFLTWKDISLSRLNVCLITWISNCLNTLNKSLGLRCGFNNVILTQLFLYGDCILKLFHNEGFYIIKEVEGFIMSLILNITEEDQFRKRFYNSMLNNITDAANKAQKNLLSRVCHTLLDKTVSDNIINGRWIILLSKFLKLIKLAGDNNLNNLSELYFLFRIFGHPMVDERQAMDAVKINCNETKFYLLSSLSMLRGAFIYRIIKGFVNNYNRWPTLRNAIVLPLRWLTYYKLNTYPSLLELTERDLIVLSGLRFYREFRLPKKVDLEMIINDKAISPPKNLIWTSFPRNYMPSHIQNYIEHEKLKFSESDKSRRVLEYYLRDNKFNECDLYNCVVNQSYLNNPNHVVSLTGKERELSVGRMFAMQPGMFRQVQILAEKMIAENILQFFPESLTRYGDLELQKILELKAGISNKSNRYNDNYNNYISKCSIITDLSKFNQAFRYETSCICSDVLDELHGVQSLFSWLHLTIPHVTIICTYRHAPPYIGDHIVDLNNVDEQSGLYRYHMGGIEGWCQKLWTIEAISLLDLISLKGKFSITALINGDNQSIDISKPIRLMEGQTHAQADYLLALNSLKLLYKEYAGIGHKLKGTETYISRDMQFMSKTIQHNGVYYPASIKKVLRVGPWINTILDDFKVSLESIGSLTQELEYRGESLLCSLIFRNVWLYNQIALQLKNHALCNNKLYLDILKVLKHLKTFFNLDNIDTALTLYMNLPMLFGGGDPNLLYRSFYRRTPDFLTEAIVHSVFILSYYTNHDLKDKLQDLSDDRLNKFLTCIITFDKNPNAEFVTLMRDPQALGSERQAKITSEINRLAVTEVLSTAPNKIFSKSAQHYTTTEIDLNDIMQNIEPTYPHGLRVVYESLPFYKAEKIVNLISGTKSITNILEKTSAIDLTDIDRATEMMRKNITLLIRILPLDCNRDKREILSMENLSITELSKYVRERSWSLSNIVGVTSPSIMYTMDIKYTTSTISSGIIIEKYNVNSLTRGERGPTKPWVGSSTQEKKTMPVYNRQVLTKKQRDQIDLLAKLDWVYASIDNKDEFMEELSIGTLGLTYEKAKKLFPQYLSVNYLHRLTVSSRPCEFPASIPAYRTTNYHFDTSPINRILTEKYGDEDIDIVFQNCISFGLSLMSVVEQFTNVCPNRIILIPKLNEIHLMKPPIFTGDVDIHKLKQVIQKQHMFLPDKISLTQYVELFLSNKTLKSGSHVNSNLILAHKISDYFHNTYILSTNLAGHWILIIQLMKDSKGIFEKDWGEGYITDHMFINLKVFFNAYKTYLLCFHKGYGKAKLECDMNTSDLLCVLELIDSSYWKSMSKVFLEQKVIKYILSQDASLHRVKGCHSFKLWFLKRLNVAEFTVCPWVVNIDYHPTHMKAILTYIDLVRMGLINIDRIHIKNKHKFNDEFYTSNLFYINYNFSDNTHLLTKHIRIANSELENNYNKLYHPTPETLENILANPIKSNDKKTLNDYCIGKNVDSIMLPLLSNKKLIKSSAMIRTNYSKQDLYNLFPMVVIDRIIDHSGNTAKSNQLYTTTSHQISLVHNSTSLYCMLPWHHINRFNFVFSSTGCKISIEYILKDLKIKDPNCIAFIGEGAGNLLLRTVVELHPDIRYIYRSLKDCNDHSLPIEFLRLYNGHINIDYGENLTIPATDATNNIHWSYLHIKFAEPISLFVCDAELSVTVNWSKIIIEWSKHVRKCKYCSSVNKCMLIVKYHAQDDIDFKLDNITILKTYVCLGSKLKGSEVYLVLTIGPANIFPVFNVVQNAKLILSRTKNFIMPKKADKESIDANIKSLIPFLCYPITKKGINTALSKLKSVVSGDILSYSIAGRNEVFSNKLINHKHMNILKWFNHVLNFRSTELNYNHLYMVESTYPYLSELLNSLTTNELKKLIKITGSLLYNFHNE

Row | Structure (SMILES) | EC50 (RSV strain A2) [µM] | EC50 (MERS-CoV) [µM] | CC50 (HEp-2 CC50 cytotoxicity) [µM] | CC50 (MT4 CC50 cytotoxicity) [µM] | IC50 (RSV RNP complexes) [µM] | IC50 (DENV2 NS5) [µM] | MTRNAP SNI (% incorporation) (POLRMT) | EC50 [1] [µM] | EC50 (SARS-CoV2-Nluc viruses) [µM] | CC50 at 48 h (Huh7 CC50 cytotoxicity) [µM] | CC50 at 48 h [2] [µM] | EC50 (Zika virus strain MR766) [µM]
1 | N#C[C@@]1(c2csc3c(N)ncnc23)O[C@H](CO)[C@@H](O)[C@H]1O [Compound C1, (2R,3R,4S,5R)-2-(4-aminothieno[3,2-d]pyrimidin-7-yl)-3,4-dihydroxy-5-(hydroxymethyl)tetrahydrofuran-2-carbonitrile] | 3.1 | 2.2 | > 100 | > 114 |  |  |  |  |  |  |  | 
2 | N#C[C@@]1(c2csc3c(N)ncnc23)O[C@H](COP(=O)(O)OP(=O)(O)OP(=O)(O)O)[C@@H](O)[C@H]1O [Compound C2, ((2R,3S,4R,5R)-5-(4-aminothieno[3,2-d]pyrimidin-7-yl)-5-cyano-3,4-dihydroxytetrahydrofuran-2-yl)methyl tetrahydrogen triphosphate] |  |  |  |  | 2.91 | 8.96 | 0.61 |  |  |  |  | 
3 | CCC(CC)COC(=O)[C@H](C)NP(=O)(OC[C@H]1O[C@@](C#N)(c2csc3c(N)ncnc23)[C@H](O)[C@@H]1O)Oc1ccccc1 (stereo partly drawn) [Compound C3, 2-ethylbutyl ((((2R,3S,4R,5R)-5-(4-aminothieno[3,2-d]pyrimidin-7-yl)-5-cyano-3,4-dihydroxytetrahydrofuran-2-yl)methoxy)(phenoxy)phosphoryl)-L-alaninate] | 0.435 |  | > 37.2 | 19 |  |  |  | 1.85 | 1.19 | > 25 | > 50 | 6.94
4 | CC(C)(C)C(=O)SCCOP(=O)(OCCSC(=O)C(C)(C)C)OC[C@H]1O[C@@](C#N)(c2csc3c(N)ncnc23)[C@H](O)[C@@H]1O [Compound C4] | 2.7 |  | > 50 | 11.1 |  |  |  |  |  |  |  | 
